Data set [1] deals with T1, CDK2/cyclin A2 protein kinase (Homo sapiens, UniProt P24941). In words: CDK2/cyclin A2 kinase assay (Promega Kinase-Glo Plus luminescence kit). It is filed as biochemical. The text has this: It measures kinase activity by quantitating the amount of ATP remaining in solution following a kinase reaction. The luminescent signal from the assay is correlated with the amount of ATP present and is inversely correlated with the amount of kinase activity. […] The computer software Graphpad Prism was used for analyzing the luminescence data. The difference between luminescence intensities in the absence of CDK2/cyclin A2 protein kinase (Lut) and in the presence of kinase (Luc) was defined as 100% activity (Lut − Luc). Using luminescence signal (Lu) in the presence of the compound, the percentage of activity was calculated as: % activity = {(Lut − Lu)/(Lut − Luc)} × 100%, where Lu = the luminescence intensity in the presence of the compound.

Data set [2] deals with HCT-116 (human colorectal carcinoma) cells. In words: MTT cytotoxicity assay, HCT-116. To be noted: 48 h, read-out: IC50 (µM) ± SD HCT-116. It counts as cell-based. On the procedure: (§1) In this study, ten compounds were examined in vitro for their activities against HCT-116, MCF-7, HepG2, and A549 human cancer cells using the MTT assay. The percentages of intact cells were calculated and compared to those of the control. The activities of these compounds against the four cell lines were compared to the activity of doxorubicin as well. […] In order to study the efficacy of the synthesized compounds, a comparison of the cytotoxic effect of each compound has been related to the cytotoxicity of the reference drug as follows.
(§2) Cell cultures of HCT-116 (human colorectal carcinoma), MCF-7 (human breast adenocarcinoma), HepG2 (human hepatocellular carcinoma), and A549 (human lung carcinoma) cell lines were purchased from the American Type Culture Collection (Rockville, MD, USA) and maintained in DMEM medium that was supplemented with 10% heat-inactivated FBS (fetal bovine serum), 100 U/mL penicillin, and […] streptomycin. The cells were grown at 37 °C in a humidified atmosphere of 5% CO2.
(§3) The anticancer activity against HCT-116, HepG2, A549, and MCF-7 human cancer cell lines was estimated using the 3-[4,5-dimethyl-2-thiazolyl)-2,5-diphenyl-2H-tetrazolium bromide (MTT) assay, which is based on the reduction of the tetrazolium salt by mitochondrial dehydrogenases in viable cells. Cells were dispensed in a 96-well sterile microplate (5 × 10^4 cells/well) and incubated at 37 °C with a series of different concentrations, in DMSO, of each tested compound or doxorubicin (positive control) for 48 h in a serum-free medium prior to the MTT assay. After incubation, media were carefully removed, and 40 µL of MTT (2.5 mg/mL) were added to each well and then incubated for an additional 4 h. The purple formazan dye crystals were solubilized by the addition of 200 µL of DMSO. The absorbance was measured at 570 nm using a Spectra Max Paradigm Multi-Mode microplate reader. The relative cell viability was expressed as the mean percentage of viable cells compared to the untreated control cells. All experiments were conducted in triplicate and repeated on three different days. All the values were represented as mean ± SD. IC50s were determined by probit analysis by SPSS Incprobit analysis (IBM Corp., Armonk, NY, USA).
(Tetrazolium assays rely on reduction of a dye to a coloured formazan, in cell work by metabolically active cells.)

Data set [3] has as its system MCF-7 (human breast adenocarcinoma) cells. As to the kind of experiment: MTT cytotoxicity assay, MCF-7. It counts as cell-based. The settings on record: MCF7, 48 h, read-out: IC50 (µM) ± SD MCF-7. On the procedure: as §1, §2, §3
Data set [4] has as its system HepG2 (human hepatocellular carcinoma) cells. In words: MTT cytotoxicity assay, HepG2. The settings on record: 48 h, read-out: IC50 (µM) ± SD HepG2. It is filed as cell-based. As to the method:
as §1, §2, §3

The test system of data set [5] is A549 (human lung carcinoma) cells. As to the kind of experiment: MTT cytotoxicity assay, A549. It is filed as cell-based. To be noted: 48 h, read-out: IC50 (µM) ± SD A549. On the procedure:
as §1, §2, §3

Data set [6] has as its target T1, CDK2/cyclin A2 protein kinase. Details: method as in PMID 33390512, PMID 22119131. To be noted: external test set of QSAR model, reported compounds V, VI; read-out: Experimental Activity (IC50/μM); cited from earlier work.
Setting [7] is: CDK2/cyclin A2, Kinase-Glo Plus luminescence, read-out: CDK2 IC50 (µM) ± SD.

Drawing on paper PMC8272136, “Discovery of New Pyrazolopyridine, Furopyridine, and Pyridine Derivatives as CDK2 Inhibitors: Design, Synthesis, Docking Studies, and Anti-Proliferative Activity” (Molecules, 2021), this text covers IC50 and melting point for 15 molecules.

Where “and” joins values, the source holds several entries; their conditions need not be identical. Identical values can stand only once. Like-named read-outs stand apart in the source and are kept apart here.

`Nc1n[nH]c2nc(-c3ccc4ccccc4c3)cc(-c3cccs3)c12` [compound 8, 6-(Naphthalen-2-yl)-4-(thiophen-2-yl)-1H-pyrazolo[3,4-b]pyridin-3-amine]: the melting point (in general, the temperature, or range, at which the solid turns liquid) was 175 to 176 °C. The IC50 in data set [1] (setting [7]) was 0.65 µM and 0.651 µM. Further, in data set [1] (external test set of QSAR model, compound 8, CDK2, read-out: Experimental Activity (IC50/μM)), the IC50 was determined as 0.651 µM. Further, in data set [2], the IC50 was 33.7 ± 3.3 µM. In addition, in data set [3], the IC50 worked out at 19.3 ± 2.1 µM. Also, the IC50 in data set [4] was found to be 29.1 ± 3.5 µM. In addition, the IC50 in data set [5] was determined as 43.8 ± 4.1 µM.
With `N#Cc1c(-c2cccs2)cc(-c2ccc3ccccc3c2)nc1Cl` [compound 4, 2-chloro-6-(naphthalen-2-yl)-4-(thiophen-2-yl)nicotinonitrile], the IC50 in data set [1] (setting [7]) was 0.24 µM and 0.236 µM; in data set [2] it was 45.9 ± 4.1 µM; in data set [3], 46.2 ± 4.1 µM; in data set [4], 42.9 ± 3.9 µM; in data set [5], 67.2 ± 5.1 µM.
On to `N#Cc1c(N)nc2[nH]c(=S)sc2c1-c1cccs1` [VI], for which the IC50 in data set [6] was 0.139 µM.
As to `N#Cc1c(-c2cccs2)cc(-c2ccc3ccccc3c2)nc1OC1=NC(=S)NC1` [compound 3, 6-(Naphthalen-2-yl)-4-(thiophen-2-yl)-2-((2-thioxo-2,5-dihydro-1H-imidazol-4-yl)oxy)nicotinonitrile], the melting point is 172 to 173 °C. Besides, in data set [1] (setting [7]), the IC50 came to 1.01 ± 0.1 µM. In addition, the IC50 in data set [2] stood at 49 ± 5.1 µM. Moreover, the IC50 in data set [3] stood at 37.3 ± 4.1 µM. Moreover, the IC50 in data set [4] stood at 44.8 ± 4.1 µM. The IC50 in data set [5] came out at 57.4 ± 4.5 µM.
On to `N#Cc1c(-c2cccs2)cc(-c2ccc3ccccc3c2)nc1SC(=O)CCl` [compound 11, S-(3-Cyano-6-(naphthalen-2-yl)-4-(thiophen-2-yl)pyridin-2-yl)2-chloroethanethioate], for which the melting point lay within 160 to 161 °C. Further, the IC50 in data set [1] (setting [7]) was 0.5 µM and 0.504 µM. The IC50 in data set [2] was 31.7 ± 3.5 µM. In addition, the IC50 in data set [3] worked out at 46.4 ± 4.3 µM. Further, in data set [4], the IC50 turned out to be 27.6 ± 3.3 µM. Moreover, the IC50 in data set [5] was 56.9 ± 4.6 µM.
`O=c1[nH]cnc2c1oc1nc(-c3ccc4ccccc4c3)cc(-c3cccs3)c12` [compound 15, 7-(Naphthalen-2-yl)-9-(thiophen-2-yl)pyrido[3′,2′:4,5]furo[3,2-d]pyrimidin-4(3H)-one]: the melting point was 197 to 198 °C.
The molecule `CCOC(=O)c1oc2nc(-c3ccc4ccccc4c3)cc(-c3cccs3)c2c1N` [compound 14, Ethyl-3-amino-6-(naphthalen-2-yl)-4-(thiophen-2-yl)furo[2,3-b]pyridine-2-carboxylate] came in with a melting point of 185 to 186 °C. Besides, in data set [1] (setting [7]), the IC50 was 0.93 µM and 0.928 µM. Moreover, the IC50 in data set [2] came out at 31.3 ± 3.3 µM. In data set [3], the IC50 is 26.1 ± 3.9 µM. The IC50 in data set [4] is 27.9 ± 3.5 µM. Moreover, the IC50 in data set [5] came out at 56.5 ± 4.8 µM.
Consider `N#Cc1c(-c2cccs2)cc(-c2ccc3ccccc3c2)[nH]c1=S` [compound 7], for which the IC50 was 1.27 ± 0.1 µM in data set [1] (setting [7]); 37.8 ± 3.9 µM in data set [2]; 27.4 ± 2.4 µM in data set [3]; 22.7 ± 2.9 µM in data set [4]; 36.8 ± 4.1 µM in data set [5].
`CCOC(=O)COc1nc(-c2ccc3ccccc3c2)cc(-c2cccs2)c1C#N` [compound 13]: the IC50 was 4.45 ± 0.2 µM in data set [1] (setting [7]); 32.4 ± 3.1 µM in data set [2]; 37.6 ± 3.5 µM in data set [3]; 30.2 ± 3.7 µM in data set [4]; 45.9 ± 4.3 µM in data set [5].
Turning to `N#Cc1c(-c2cccs2)cc(-c2ccc3ccccc3c2)nc1OC(=O)CCl` [compound 2, 3-Cyano-6-(naphthalen-2-yl)-4-(thiophen-2-yl)pyridin-2-yl 2-chloroacetate], the melting point fell in the range of 165 to 166 °C. Further, in data set [1] (setting [7]), the IC50 was 1.79 ± 0.1 µM. The IC50 in data set [2] was 43.5 ± 4.5 µM. For the same molecule, the IC50 in data set [3] was 21.3 ± 3.1 µM. Further, the IC50 in data set [4] was found to be 29.4 ± 3.5 µM. In data set [5], the IC50 worked out at 70.7 ± 4.1 µM.
For `N#Cc1c(-c2cccs2)cc(-c2ccc3ccccc3c2)[nH]c1=O` [compound 1, 6-(naphthalen-2-yl)-2-oxo-4-(thiophen-2-yl)-1,2-dihydropyridine-3-carbonitrile], the IC50 in data set [1] (setting [7]) turned out to be 0.57 ± 0.1 µM; in data set [2] it was 39.1 ± 4.2 µM; in data set [3], 47 ± 4.5 µM; in data set [4] it was 27.9 ± 3.1 µM; in data set [5] it was 60.6 ± 4.8 µM.
Take `COc1cccc2c1C(=O)c1c(O)c3c(c(O)c1C2=O)C[C@@](O)(C(=O)CO)C[C@@H]3O[C@H]1C[C@H](N)[C@H](O)[C@H](C)O1` [Doxorubicin, reference compound]: the IC50 in data set [2] was 40 ± 3.9 µM.
`N#Cc1c(-c2cccs2)cc(-c2ccc3ccccc3c2)nc1Nc1ccccc1` [compound 6, 6-(Naphthalen-2-yl)-2-(phenylamino)-4-(thiophen-2-yl)nicotinonitrile] showed a melting point of 130 to 131 °C.
Regarding `Oc1nc(-c2cccs2)c2sc(=S)[nH]c2n1` [V], the IC50 in data set [6] is 0.743 µM.
`COc1nc(-c2ccc3ccccc3c2)cc(-c2cccs2)c1C#N` [compound 5, 2-Methoxy-6-(naphthalen-2-yl)-4-(thiophen-2-yl)nicotinonitrile] showed a melting point of 125 to 126 °C. In data set [1] (setting [7]), the IC50 stood at 3.53 ± 0.2 µM. Besides, in data set [2], the IC50 came out at 33.8 ± 3.5 µM. In data set [3], the IC50 turned out to be 55.5 ± 4.5 µM. Also, the IC50 in data set [4] was 27.2 ± 3.1 µM. For the same molecule, in data set [5], the IC50 is 47.6 ± 4.5 µM.
